{
  "source": "patent US20070218504A1",
  "about": "“HUMAN LEPTIN-DERIVED POLYPEPTIDES AND USES THEREOF” (UNIVERSITY OF PITTSBURGH, priority 2006, published 2007)",
  "key": {"ob/ob mice [1]": {"test_system": "ob/ob mice", "assay": "Co-infusion of polypeptide E with human CRP and leptin through mini-osmotic pumps into ob/ob mice", "type": "in vivo, mouse", "description": "FIG. 11. […] Infusion dosages for human CRP and leptin were 48 μg/day/mouse and 12 μg/day/mouse, respectively. The infusion rate for Pep-E (P) was 24 μg/day/mouse (medium dosage, “m”) and 48 μg/day/mouse (high dosage, “h”). Food-intake (A and C) and body weight (B and D) were monitored daily throughout the infusion. The arrows in A-D indicate the day of surgery. At the end of infusion, blood samples were collected for the measurement of blood-glucose, human CRP, and human leptin. The serum concentrations of human CRP and human leptin were 0.85±0.1 μg/ml and 18 ng±2 ng/ml, respectively. […] Also shown is glucose concentration from mice infused with human CRP and leptin but not with Pep-E.\nIn the in vivo experiment, polypeptide E was co-infused through mini-osmotic pumps with human CRP and leptin into the ob/ob mice. Food intake in the period of 24 hours and body weight were followed during the infusion period (FIGS. 11A-11D)."}, "[2]": {"test_system": "tyrosine phosphorylation of STAT3", "assay": "Leptin-induced tyrosine phosphorylation of STAT3 in HEK293 cells over-expressing OB-Rb in the presence of CRP (Western blot)", "type": "cell-based, human", "description": "(§1) To determine if the interaction between CRP and leptin dampens the cellular actions of leptin, the ability of leptin to stimulate tyrosine phosphorylation of STAT3 and PI3-kinase activity was assessed in the presence of CRP in vitro. HEK293 cells over-expressing OB-Rb were serum starved for 2 hours before addition of leptin and CRP (CHEMICON or EMD Biosciences). Leptin, in the presence or absence of CRP, was pre-incubated in μ-MEM (with additional 1 mM Ca^2+) for 30 minutes at 37° C. before being applied to the cells. After a 30-minute incubation with leptin, the cells were harvested in lysis buffer (18). The resultant protein extract was subjected to a Western blot analysis using an anti-phospho-STAT3 specific antibody (Cell Signaling, Beverly, Mass.). For studies involving primary hypothalamic neurons, the hypothalamus from rats was surgically isolated immediately after euthanasia, and placed in the DMEM for incubation with leptin in the presence or absence of CRP."}, "[3]": {"test_system": "IL-6 induced activation of STAT3", "assay": "IL-6 induced activation of STAT3 in human primary hepatocytes", "type": "cell-based", "settings": "even higher CRP concentration", "from_the_text": "Human hepatocytes were isolated from donor livers. Briefly, the livers were perfused in a three-step process. A calcium-free buffer supplemented with EGTA is used to break […] junctions, which is followed by the same perfusion buffer without EGTA. Finally, a calcium-containing buffer supplemented with digestive enzymes (collagenase and DNase) was used. Following digestion, parenchymal hepatocytes were isolated by three steps of low-speed centrifugation. Cells with a viability of at least 85% were plated and cultured in hepatocytes maintenance medium (HMM) (Cambrex BioScience, Walkersville, Md.) supplemented with 10% fetal bovine serum (FBS), 0.1 μM dexamethasone, 0.1 μM insulin, and 50 μg/ml gentamicin on collagen-coated tissue culture dishes for 2-4 hours. The cells were subsequently cultured in the above medium without FBS.\nApproximately 24 hours after seeded, the hepatocytes were washed with serum-free HMM supplemented with 0.1 μM dexamethasone and 0.1 μM insulin, and then cultured in the same medium for another 48 hours. Subsequently, the cells were switched to serum-free HMM supplemented with 0.1 μM dexamethasone before stimulated with leptin (NHPP) or rhIL-6 (R&D Systems, Minneapolis, Minn.) for 24 hours or 48 hours. For experiments involving PI3-kinase inhibitors, hepatocytes were pretreated with LY294002 (EMD Biosciences, Calif.) for 1 hour before hormonal stimulation."}, "[4]": {"test_system": "leptin signaling in primary hypothalamic neurons", "assay": "Phospho-STAT3 and PI3-kinase assays of leptin signaling in primary hypothalamic neurons", "type": "cell-based, rat", "description": "as §1"}, "ob/ob mice [5]": {"test_system": "ob/ob mice", "assay": "Intracerebralventricular (i.c.v.) injection of human CRP and leptin in ob/ob mice, food intake and body weight", "type": "in vivo, mouse", "settings": "ob/ob mice"}},
  "note": "“Also recorded” adds a separate entry of the source.",
  "data": [
    {"substance": "human CRP: human C-reactive protein, purified preparation from a commercial source", "values": [
      {"measurement": "serum concentration of human CRP", "setting": "ob/ob mice [1]; end of infusion, 48 μg/day/mouse", "value": "850 ± 100", "unit": "ng/mL"},
      {"measurement": "effect of human CRP on satiety and weight-reducing effects of human leptin in the absence of the polypeptide", "setting": "ob/ob mice [1]; human CRP 48 μg/day/mouse, leptin 12 μg/day/mouse", "value": "able to block the satiety and weight-reducing effects"},
      {"measurement": "calcium dependence of attenuation of leptin signaling", "setting": "[2]; excess EGTA added to the medium", "value": "requires the presence of calcium ions"},
      {"measurement": "effect of CRP on human leptin-induced tyrosine phosphorylation of STAT3", "setting": "[2]; HEK293 OB-Rb", "value": "attenuating effects; also recorded: caused the reduction of leptin-stimulated STAT3 activation; also recorded: attenuate"},
      {"measurement": "effect of CRP on human leptin-induced tyrosine phosphorylation of STAT3", "setting": "[2]; HEK293 OB-Rb, listed as Human CRP", "value": "suppressed the activation of STAT3; also recorded: suppresses activation of STAT3"},
      {"measurement": "effect of CRP on murine leptin-induced tyrosine phosphorylation of STAT3", "setting": "[2]; murine/mouse leptin, HEK293 OB-Rb", "value": "does not have attenuation effect; also recorded: unable to block"},
      {"measurement": "effect on IL-6 induced activation of STAT3", "setting": "[3]", "value": "did not suppress"},
      {"measurement": "effect on leptin signaling (phospho-STAT3, PI3-kinase)", "setting": "[4]", "value": "specifically inhibited leptin signaling"},
      {"measurement": "effect of i.c.v. human CRP on satiety and weight-reducing effects induced by mouse leptin", "setting": "ob/ob mice [5]", "value": "did not influence"}
    ]}
  ]
}
